System: coagulase-negative Staphylococci (CoNS)
Experiment: Oxacillin MIC by agar dilution (NCCLS M100-S10, M7), isolate retest
Type: cell-based
Procedure: Blood culture bottles that were flagged as positive by the BacT/Alert system (Organon Teknika Corp., Durham N.C.) were processed by the Microbiology laboratory using standard microbiologic methods (Kloos & Bannerman, 1999). S. aureus was identified by a positive tube coagulase test. Oxacillin susceptibility for S. aureus was determined using the oxacillin salt agar screen method (NCCLS M100-S10, M7) and for coagulase-negative Staphylococci (CoNS) using disk diffusion testing (NCCLS M100-S10, M2).
In cases where there were discrepancies between the mecA PCR result of the blood culture bottle contents and the initial susceptibility result for the isolate recovered from the bottle, the isolate was re-tested for the mecA gene, oxacillin MIC was determined by agar dilution (NCCLS M100-S10, M7) and disk diffusion testing for oxacillin was repeated (NCCLS M100-S10, M2).

Cc1onc(-c2ccccc2)c1C(=O)N[C@@H]1C(=O)N2[C@@H]1SC(C)(C)[C@@H]2C(=O)O [Oxacillin]
Oxacillin MIC (isolate from bottle 8, initially reported as MS-CoNS): 2.0 | Oxacillin MIC (isolate from bottle 10, initially reported as MR-CoNS): 0.5
